Entries after “also recorded” stand apart in the source; their conditions may differ.
How the values were obtained:
Sprague-Dawley rats = assay: Palatable liquid consumption, two-bottle paradigm (19-h sessions); type: in vivo, rat; details: for water consumption: water/water control
Protocol: Naïve female Sprague-Dawley rats (230-270 g; Taconic, Germantown, N.Y.) were housed individually and maintained on a normal 12 hr light cycle (light on/off at 7 a.m./7 p.m.) in the colony room. For all experiments, food (normal chow) and water were provided ad libitum. The experiments were conducted in accordance with the “Guide for the Care and Use of Laboratory Animals” (National Academy of Sciences, 1996).
On the first day of the experiment, the regular cage tops were replaced with custom-made cage tops containing metal holders for two 100-ml graduated glass bottles (Lab Products Inc., Seaford, Del.); the bottles were placed approximately 2″ apart. Different groups of rats were allowed 19-h (3.30 p.m.-10.30 a.m.) unlimited access to water and 5% sucrose, water and 0.1% saccharine, water and 0.6% saline, or water and water. The concentrations were chosen in accordance with previous reports using similar two-bottle drinking paradigms. See Dess, N. K., Physiol Behav., 69: 247-257 (2000) and Warwick, Z. S. et al., Physiol Behav, 60: 711-715 (1996), which are hereby incorporated by reference in their entirety. The animals were maintained on a normal chow during these sessions. The bottles with palatable fluids were removed at the end of the 19-h sessions, but water and chow remained always available. The consumption of palatable fluids and water during the sessions were recorded on a daily basis for four consecutive sessions: two initial baseline sessions, one treatment session and one port-treatment session. The baseline consumption levels of fluids were established during the initial two sessions; immediately before the third session, animals were injected with 18-MC (10, 20, or 40 mg/kg i.p.) or vehicle. To account for possible side preferences of rats, the bottle sides were switched daily; animals expressing strong side preferences during the baseline sessions were excluded from further analysis. Each animal was used for four weeks, receiving three different dosages of 18-MC and vehicle in random order.
The average levels of fluid consumption (ml) during the first two sessions (baseline), as well as consumption during the post-injection session and the recovery session, were compared by two-way ANOVA using treatment and session as main factors; this analysis was followed by one-way ANOVAs for each treatment group and post-hoc tests when appropriate.

[1] = Weight gain paradigm: sucrose-drinking animals; type: in vivo, rat
Protocol: FIG. 11 is a graph showing effects of repeated administration of 18-MC (20 mg/kg i.p. for 14 days) on body fat depots (mean±SEM). *=p<0.05. On the seventh day after the last injection of 18-MC, animals were euthanized in CO2 chambers and decapitated. Necropsies were performed to remove periovarian, perirenal and inguinal fat pads.
Animals were maintained on a regular chow and water for the duration of experiment (three weeks). On the first day of experiment, animals received additional bottle containing 30% sucrose solution which remained available for the following three weeks; the bottle sides were switched daily. The body weights of rats were recorded daily for the following two weeks immediately prior administration of 18-MC (20 mg/kg, i.p.) or vehicle. After the last 18-MC injection, the weights were monitored for the additional week.
For the weight gain experiment, the data for all four treatment groups from days 1-21 were analyzed using two-way ANOVA, with treatment and time as main factors. Furthermore, the data for the first two weeks and the last week for water-vehicle, water-18-MC and sucrose 18-MC were analyzed separately using two-ANOVA, with treatment and time as main factors. Post-hoc comparison tests (Fisher LSD tests) were conducted when appropriate.

rats [2] = assay: Ad libitum sucrose intake over 24 hours (choice of sucrose or water); type: in vivo, rat
Protocol: FIG. 9 is a graph showing effects of 18-MC (10, 20, 40 mg/kg i.p.) on consumption of sucrose. Each bar represents mean 24 hour consumption of 5% sucrose solution expressed as percent of baseline (S.E.M.): *=p<0.05.
As described above, systemic 18-MC can decrease operant responding for sucrose and local administration of 18-MC into the dorsolateral tegmentum can also do so. These findings, which were unanticipated, led to investigation of the possibility that 18-MC might be useful in decreasing intake of sweet substances when available ad libitum along with normal rat chow. Rats offered a choice of drinking sucrose (15%) or water have strong preferences (70-80%) for sucrose. […] Whether 18-MC's effect on sucrose intake has a consequence in terms of body weight regulation was explored in a subsequent study. Rats given unlimited access to sucrose (30%) for two weeks gained excessive weight, consistent with other studies of sucrose-induced obesity. […] 18-MC had no effect on the body weight of “normal” rats having only water available.

rats [3] = assay: Drug self-administration and water-reinforced responding in rats (earlier studies); type: in vivo, rat
Protocol: Other work has extended the “anti-addictive” effect of 18-MC to oral intake of ethanol. In all cases, these effects last for at least 24 hours. […] Unlike 18-MC, ibogaine and many other iboga alkaloid congeners (approximately 30 tested) decrease responding for water as well as for drugs. And it was precisely this unique specificity that led to development and study of 18-MC.

rats [4] = details: systemic pretreatment; cited from earlier work
[5] = tested on: morphine-experienced rats; details: cited from earlier work
[6] = saccharin/water experiment, 10, 20 and 40 mg/kg i.p.
[7] = sucrose/water experiment, 10, 20 and 40 mg/kg i.p.

## COCC[C@H]1CC2CN3CCc4c([nH]c5ccccc45)[C@](C(=O)OC)(C2)[C@H]13 [18-MC, 18-methoxycoronaridine]
Sprague-Dawley rats; 0.1% saccharin/water, 10 mg/kg i.p.
  saccharin intake, recovery session: reduced intake
Sprague-Dawley rats; 0.1% saccharin/water, 10, 20 and 40 mg/kg i.p.
  saccharin intake, post-injection session vs baseline: significantly less
Sprague-Dawley rats; 0.6% saline/water, 10 mg/kg i.p.
  saline consumption vs baseline: remained unchanged
Sprague-Dawley rats; 0.6% saline/water, 20 and 40 mg/kg i.p., 19 h following injection
  saline consumption vs baseline: reduced
Sprague-Dawley rats; 0.6% saline/water, highest dose (40 mg/kg i.p.)
  effect on saline consumption, recovery session: also significant
Sprague-Dawley rats; 5% sucrose/water, 10, 20 and 40 mg/kg i.p.
  sucrose intake, recovery session: returned to baseline
Sprague-Dawley rats; 5% sucrose/water, 10, 20 and 40 mg/kg i.p., 19-h session
  sucrose consumption, post-injection session vs baseline: significantly reduced
Sprague-Dawley rats; control water/water experiment vs two-bottle experiments
  selectivity for reducing consumption of sucrose and saccharin relative to water: at least four-fold
Sprague-Dawley rats; dose range 10-40 mg/kg i.p.
  ceiling effect dose, consumption of sucrose and saccharin: 10 mg/kg
  ceiling effect dose, saline consumption: 20 mg/kg
Sprague-Dawley rats; saccharin/water experiment, 10 mg/kg i.p.
  effect on total fluid consumption, recovery session: remained significant
Sprague-Dawley rats; [6]
  total fluid consumption (FIG. 3C), 19 h after injection: reduced
  water consumption across sessions: not altered
Sprague-Dawley rats; saline/water experiment, 10 mg/kg i.p.
  total fluid consumption: remained unchanged
Sprague-Dawley rats; saline/water experiment, 10, 20 and 40 mg/kg i.p.
  water consumption across sessions: not different across sessions
Sprague-Dawley rats; saline/water experiment, 20 and 40 mg/kg i.p.
  total fluid consumption: significantly reduced
Sprague-Dawley rats; saline/water experiment, highest dose (40 mg/kg i.p.)
  effect on total fluid consumption, recovery session: also significant
Sprague-Dawley rats; [7]
  total fluid consumption, post-injection session vs baseline: reduced
  water consumption across sessions: remained stable
Sprague-Dawley rats; 40 mg/kg i.p.
  water consumption: significantly reduced
Sprague-Dawley rats; 10 and 20 mg/kg i.p.
  water consumption: remained unchanged
[1]; 18-MC 20 mg/kg i.p. for 14 days, periovarian, perirenal and inguinal fat pads
  weights of fat depots: decreased
[1]; 18-MC-treated sucrose-drinking group
  recovery of the weight gain after cessation of treatment: did not occur for another week
[1]; 30% sucrose, 18-MC 20 mg/kg i.p. daily for two weeks
  sucrose-induced (excessive) weight gain: attenuated; also recorded: totally prevented
[1]; 30% sucrose, 18-MC (40 mg/kg i.p.) as printed, all time points except the first
  body weights vs vehicle-treated sucrose-drinking animals: significantly lower
Rats [2]; 18-MC 10-40 mg/kg i.p.
  water intake over the 24 hours following administration: no significant effect
Rats [2]; 18-MC 10-40 mg/kg i.p., sucrose (15%) or water
  intake of sucrose over the 24 hours following administration: decreased
Rats [2]; dose range 10-40 mg/kg i.p.
  ceiling dose beyond which no further effect on ad libitum sucrose intake: 10 mg/kg
Rats [3]; 20 mg/kg, i.p., depending on the drug
  decrease of drug self-administration: 40-80%
Rats [3]; at times when self-administration is decreased
  motor effects: no motor effects
Rats [3]; rat, in vivo
  duration of effects on drug self-administration: at least 24 hours
Rats [3]; rat, in vivo, po
  effect on oral intake of ethanol: anti-addictive
Rats [3]; rats
  cocaine, methamphetamine and nicotine self-administration: decreases
  morphine self-administration: dose-dependently decreases
Rats [3]; same doses that decrease drug self-administration
  responding for water (non-drug reinforcer): do not affect
Rats [4]
  intravenous self-administration of morphine and other drugs: reduce
[5]
  sensitized morphine-induced dopamine release in the nucleus accumbens: attenuate
